Two compounds from patent US20220380383A1, “NEUROPROTECTIVE PDI MODULATING SMALL MOLECULES AND METHODS OF USE THEREOF” (THE TRUSTEES OF COLUMBIA UNIVERSITY IN THE CITY OF NEW YORK, priority 2018, published 2022) can be followed below.

Series [1] concerns uninduced PC12 cells not expressing mHTTQ103. Briefly: General cell toxicity in PC12 cell culture assay. Format: cell-based. Here is the method:
Neuroprotection was assessed by each compound's ability to rescue cells from mutant-huntingtin-induced cell death (“Ind Q103” cells; blue). General cell toxicity of each compound was assessed in uninduced cells not expressing mutant-huntingtin protein (“Unind Q103” cells; red). NMP, DMSO, LOC14 in NMP and LOC14 in DMSO were used as controls.
Data from cells induced to express mHTT^Q103 (blue) and cells not expressing mHTT^Q103 (red) are plotted as mean percent of DMSO-treated uninduced cells±SD with n=3.
The follow-up testing of primary screen hits was performed in a similar way. Fresh powder stocks of primary hits were re-ordered from vendors, dissolved in DMSO and tested in a two-fold serial dilution across 10 wells in both tebufenozide-induced and uninduced PC12 mHTT^Q103 cells. Dose-response curves were plotted as mean±SD and fit to either four-parameter sigmoidal (for uninduced cells) or bell-shaped (induced) function using Prism (GraphPad Software).

Series [2] has as its system neuronal redox state (roGFP2). As to the kind of experiment: roGFP2 redox reporter in primary neurons. Type of series: cell-based. Here is the method: […]. Rat coronal brain slice explants co-transfected with YFP and Tau-4R (FIG. 16B) or striatal brain slice explants co-transfected with YFP and mHTT (FIG. 16C) were treated with LC-43 or DMSO carrier-only for 3 days. The respective regions of each brain slice were then scored for numbers of healthy (FIG. 16B) pyramidal or (FIG. 16C) medium spiny neurons remaining. Data are normalized to the negative control condition set to 100% and plotted as means±SEM. In FIG. 16D, The confocal images shown are maximal z-stacks of 0.5 μm steps (˜20 images per stack). (Bottom) Reduction of neuronal redox state by LC-43. Left, Primary neurons were co-transfected with mCherry (to positively identify transfected neurons) and the genetically encoded ratiometric redox reporter roGFP2. Four days later, the culture medium was changed into an identical formulation except without conventional antioxidant additives. 24 hours after this medium change, LOC-43 or DMSO carrier-only were added to the neurons and images were taken after 30 minutes or 24 hours of treatment as indicated. Imaging was done using a Leica SP5 inverted confocal microscope through a 63× water-immersion objective. Images of 40 individual neurons for each condition were collected at 405 and 488 nm and analysis of the 405/488 ratio for each image pair was done using CellProfiler (Broad Institute).
As mentioned, we synthesized several fluorine-containing analogs of LOC14 (analogs LC-43 and LC-40). Addition of fluorine was the only modification that was tolerated at the ortho position without a complete loss of activity in cells and in targeting PDI in vitro (Table 9). […] Additionally, we evaluated LC-43 using a genetically encoded redox reporter transfected into neurons. […] In contrast, treatment with the non-selective reducing agent dithiothreitol (DTT) produces an immediate and dramatic reduction in the roGFP2 fluorescence ratio that leads rapidly to cell degeneration and death (FIG. 16D). […]

For series [3], the system named is cortical pyramidal neurons in rat coronal brain slice explants co-transfected with YFP and Tau-4R. Briefly: AD brain slice model (Tau-4R). Type of series: cell-based. The text has this: The cortical regions of each brain slice were then scored for numbers of healthy pyramidal neurons remaining. Data are plotted as means±SEM. Graph represents an average of 3 independent experimental runs. Significant difference is denoted with * with respect to the Tau-4R condition by ANOVA followed by Dunnett's post hoc comparison test at p<0.05.
To see if the mechanism of LOC14 protection can ameliorate other neurodegenerative disease phenotypes, we used a brain slice model of Alzheimer's disease (AD) in which the degeneration of cortical pyramidal neurons is induced via transfected tau protein containing four repeats of the microtubulin-binding domain (Tau-4R). Rat coronal brain slice explants were co-transfected with YFP and Tau-4R and treated with LOC14, benzoisothiazolone, or DMSO vehicle-only for 3 days. The cortical region of each brain slice was then scored for number of healthy pyramidal neurons remaining.

The target of series [4] is PDI (Homo sapiens, UniProt P07237). As to the kind of experiment: Enzymatic assay for inhibition of PDI using insulin as substrate. Format: biochemical.
The target in series [5] is T1, SERT (Homo sapiens, UniProt P31645).
T1 construct: CEREP (CRO panel)
As to the kind of experiment: Safety47 panel transporter SERT. Type of series: cell-based. As to conditions: Blocker mode; 3 μM. The text has this:
(§1) LOC14 was also submitted for testing in CEREP's Safety47 panel. CEREP is a CRO specializing in preclinical research, discovery and development of new pharmaceutical drugs.

Series [6] deals with Dopamine D2S (Homo sapiens, UniProt P14416). As to the kind of experiment: Off-target panel, Dopamine D2S. The conditions noted are these: Conc. 3 μM. Type of series: binding.
Sequence of Dopamine D2S (P14416 1-414 isoform P14416-2): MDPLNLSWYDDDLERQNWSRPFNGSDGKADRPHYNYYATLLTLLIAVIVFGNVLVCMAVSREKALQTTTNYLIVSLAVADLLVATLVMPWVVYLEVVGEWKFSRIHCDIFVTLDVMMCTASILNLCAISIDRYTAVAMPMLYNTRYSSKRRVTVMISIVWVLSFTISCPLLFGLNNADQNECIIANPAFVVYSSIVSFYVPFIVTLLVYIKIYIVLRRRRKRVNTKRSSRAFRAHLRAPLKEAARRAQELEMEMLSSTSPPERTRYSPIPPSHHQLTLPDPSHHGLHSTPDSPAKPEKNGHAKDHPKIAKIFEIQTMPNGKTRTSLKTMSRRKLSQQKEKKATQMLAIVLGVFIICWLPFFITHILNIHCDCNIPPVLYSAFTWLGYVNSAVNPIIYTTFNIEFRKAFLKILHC
The target of series [7] is Dopamine D1 (Homo sapiens, UniProt P21728). As to the kind of experiment: Off-target panel, Dopamine D1. Format: binding. As to conditions: Conc. 3 μM.
Series [8] addresses T2, PDE3A (Homo sapiens, UniProt Q14432).
T2 construct: CEREP (CRO panel)
As to the kind of experiment: Safety47 panel non-kinase enzyme PDE3A. Format: biochemical. As to conditions: Inhibitor mode; 3 μM.
From the text: as §1

Series [9] has as its target T3, VEGFR2 (Homo sapiens, UniProt P35968).
T3 construct: CEREP (CRO, Safety47 panel)
Briefly: Safety47 panel kinase VEGFR2. As to conditions: Inhibitor mode; 3 μM. Type of series: biochemical.
From the text: as §1

In series [10] the target is T4, LCK (Homo sapiens, UniProt P06239).
T4 construct: CEREP (CRO, Safety47 panel)
T4 sequence (P06239 whole entry): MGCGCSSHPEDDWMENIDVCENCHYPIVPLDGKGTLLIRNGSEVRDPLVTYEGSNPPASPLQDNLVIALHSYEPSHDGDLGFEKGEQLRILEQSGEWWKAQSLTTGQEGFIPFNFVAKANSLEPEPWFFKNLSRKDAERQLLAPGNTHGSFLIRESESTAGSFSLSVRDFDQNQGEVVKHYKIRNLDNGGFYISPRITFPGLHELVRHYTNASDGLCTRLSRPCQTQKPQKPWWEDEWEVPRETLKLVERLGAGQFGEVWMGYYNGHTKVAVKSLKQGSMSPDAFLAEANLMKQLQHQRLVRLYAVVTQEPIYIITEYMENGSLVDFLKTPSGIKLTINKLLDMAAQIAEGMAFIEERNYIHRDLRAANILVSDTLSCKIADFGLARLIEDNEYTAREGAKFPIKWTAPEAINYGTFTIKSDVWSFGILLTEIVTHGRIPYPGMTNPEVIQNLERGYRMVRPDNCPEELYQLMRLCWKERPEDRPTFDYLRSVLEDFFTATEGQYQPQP
Briefly: Safety47 panel kinase LCK. The conditions noted are these: Inhibitor mode; 3 μM. Type of series: biochemical.
From the text: as §1

The target in series [11] is T5, hERG (Homo sapiens, UniProt Q12809).
T5 construct: CEREP (CRO panel)
T5 sequence (Q12809 whole entry): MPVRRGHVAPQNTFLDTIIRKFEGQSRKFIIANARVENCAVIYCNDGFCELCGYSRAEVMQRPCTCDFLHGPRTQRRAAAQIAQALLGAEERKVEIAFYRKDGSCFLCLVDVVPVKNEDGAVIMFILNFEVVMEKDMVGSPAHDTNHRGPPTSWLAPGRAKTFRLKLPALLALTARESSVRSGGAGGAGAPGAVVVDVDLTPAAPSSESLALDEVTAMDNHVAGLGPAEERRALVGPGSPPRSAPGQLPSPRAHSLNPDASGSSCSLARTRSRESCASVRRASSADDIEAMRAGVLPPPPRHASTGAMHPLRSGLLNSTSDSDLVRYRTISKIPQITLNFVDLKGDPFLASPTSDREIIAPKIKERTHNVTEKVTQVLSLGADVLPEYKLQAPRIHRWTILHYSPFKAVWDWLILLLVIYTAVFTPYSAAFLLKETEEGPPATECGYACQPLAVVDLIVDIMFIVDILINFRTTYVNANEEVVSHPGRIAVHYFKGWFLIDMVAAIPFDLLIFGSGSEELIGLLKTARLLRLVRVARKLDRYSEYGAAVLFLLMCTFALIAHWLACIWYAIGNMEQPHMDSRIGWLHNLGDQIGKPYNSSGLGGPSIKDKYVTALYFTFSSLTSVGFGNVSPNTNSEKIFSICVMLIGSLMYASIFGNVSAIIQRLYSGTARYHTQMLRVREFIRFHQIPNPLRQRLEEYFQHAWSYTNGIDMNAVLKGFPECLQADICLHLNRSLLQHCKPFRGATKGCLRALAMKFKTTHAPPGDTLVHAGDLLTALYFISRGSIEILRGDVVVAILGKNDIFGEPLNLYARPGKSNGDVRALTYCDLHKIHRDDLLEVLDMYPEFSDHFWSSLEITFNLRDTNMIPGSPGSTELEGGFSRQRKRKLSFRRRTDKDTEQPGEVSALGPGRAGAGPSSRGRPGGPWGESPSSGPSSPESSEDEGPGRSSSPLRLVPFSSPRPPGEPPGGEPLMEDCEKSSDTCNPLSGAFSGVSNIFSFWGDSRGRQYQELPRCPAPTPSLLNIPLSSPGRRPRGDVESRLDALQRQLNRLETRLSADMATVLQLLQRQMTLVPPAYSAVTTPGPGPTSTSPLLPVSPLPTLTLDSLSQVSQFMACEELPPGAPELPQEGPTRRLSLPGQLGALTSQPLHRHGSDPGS
Briefly: Safety47 panel ion channel hERG. The conditions noted are these: Blocker mode; 3 μM. Type of series: cell-based.
From the text: as §1

Series [12] has as its target Sigma σ1 (Homo sapiens, UniProt Q99720). Briefly: Off-target panel, Sigma σ1. Format: binding. As to conditions: Conc. 3 μM.
The target in series [13] is T6, DAT (Homo sapiens, UniProt Q01959).
T6 construct: CEREP (CRO panel)
As to the kind of experiment: Safety47 panel transporter DAT. Format: cell-based. The conditions noted are these: Blocker mode; 3 μM.
From the text: as §1

In series [14] the target is Prostanoid EP4 (Homo sapiens, UniProt P35408). As to the kind of experiment: Off-target panel, Prostanoid EP4. Type of series: binding. The conditions noted are these: Conc. 3 μM.
The target in series [15] is T7, COX1 (Homo sapiens, UniProt P23219).
T7 construct: CEREP (CRO panel)
T7 sequence (P23219 24-599): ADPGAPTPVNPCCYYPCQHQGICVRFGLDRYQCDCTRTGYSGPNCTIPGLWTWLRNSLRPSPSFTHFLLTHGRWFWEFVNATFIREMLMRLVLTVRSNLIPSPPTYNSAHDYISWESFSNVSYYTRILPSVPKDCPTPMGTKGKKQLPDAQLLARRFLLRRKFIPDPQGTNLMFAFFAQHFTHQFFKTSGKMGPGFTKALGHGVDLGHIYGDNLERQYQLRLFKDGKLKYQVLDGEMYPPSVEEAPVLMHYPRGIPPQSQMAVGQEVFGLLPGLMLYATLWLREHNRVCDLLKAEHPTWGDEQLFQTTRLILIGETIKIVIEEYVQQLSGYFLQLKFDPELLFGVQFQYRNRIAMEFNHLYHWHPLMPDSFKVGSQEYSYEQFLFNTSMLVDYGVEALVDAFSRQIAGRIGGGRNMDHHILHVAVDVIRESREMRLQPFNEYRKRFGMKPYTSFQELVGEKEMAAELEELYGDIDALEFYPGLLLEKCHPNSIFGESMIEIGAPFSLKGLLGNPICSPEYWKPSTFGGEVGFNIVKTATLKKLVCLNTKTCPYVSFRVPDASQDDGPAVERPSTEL
Briefly: Safety47 panel non-kinase enzyme COX1. Format: biochemical. The conditions noted are these: Inhibitor mode; 3 μM.
From the text: as §1

Series [16] addresses Adrenergic α2A (Homo sapiens, UniProt P08913). As to the kind of experiment: Off-target panel, Adrenergic α2A. As to conditions: Conc. 3 μM. Format: binding.

“Also recorded” adds a separate entry of the source.

Sequence of Sigma σ1 (Q99720 whole entry): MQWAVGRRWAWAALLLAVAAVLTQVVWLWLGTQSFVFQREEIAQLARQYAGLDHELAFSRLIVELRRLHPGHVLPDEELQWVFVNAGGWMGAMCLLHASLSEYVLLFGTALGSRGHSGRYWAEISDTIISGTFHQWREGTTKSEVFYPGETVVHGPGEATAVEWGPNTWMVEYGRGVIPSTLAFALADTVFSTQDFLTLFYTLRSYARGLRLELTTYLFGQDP
T3 sequence (P35968 20-1356): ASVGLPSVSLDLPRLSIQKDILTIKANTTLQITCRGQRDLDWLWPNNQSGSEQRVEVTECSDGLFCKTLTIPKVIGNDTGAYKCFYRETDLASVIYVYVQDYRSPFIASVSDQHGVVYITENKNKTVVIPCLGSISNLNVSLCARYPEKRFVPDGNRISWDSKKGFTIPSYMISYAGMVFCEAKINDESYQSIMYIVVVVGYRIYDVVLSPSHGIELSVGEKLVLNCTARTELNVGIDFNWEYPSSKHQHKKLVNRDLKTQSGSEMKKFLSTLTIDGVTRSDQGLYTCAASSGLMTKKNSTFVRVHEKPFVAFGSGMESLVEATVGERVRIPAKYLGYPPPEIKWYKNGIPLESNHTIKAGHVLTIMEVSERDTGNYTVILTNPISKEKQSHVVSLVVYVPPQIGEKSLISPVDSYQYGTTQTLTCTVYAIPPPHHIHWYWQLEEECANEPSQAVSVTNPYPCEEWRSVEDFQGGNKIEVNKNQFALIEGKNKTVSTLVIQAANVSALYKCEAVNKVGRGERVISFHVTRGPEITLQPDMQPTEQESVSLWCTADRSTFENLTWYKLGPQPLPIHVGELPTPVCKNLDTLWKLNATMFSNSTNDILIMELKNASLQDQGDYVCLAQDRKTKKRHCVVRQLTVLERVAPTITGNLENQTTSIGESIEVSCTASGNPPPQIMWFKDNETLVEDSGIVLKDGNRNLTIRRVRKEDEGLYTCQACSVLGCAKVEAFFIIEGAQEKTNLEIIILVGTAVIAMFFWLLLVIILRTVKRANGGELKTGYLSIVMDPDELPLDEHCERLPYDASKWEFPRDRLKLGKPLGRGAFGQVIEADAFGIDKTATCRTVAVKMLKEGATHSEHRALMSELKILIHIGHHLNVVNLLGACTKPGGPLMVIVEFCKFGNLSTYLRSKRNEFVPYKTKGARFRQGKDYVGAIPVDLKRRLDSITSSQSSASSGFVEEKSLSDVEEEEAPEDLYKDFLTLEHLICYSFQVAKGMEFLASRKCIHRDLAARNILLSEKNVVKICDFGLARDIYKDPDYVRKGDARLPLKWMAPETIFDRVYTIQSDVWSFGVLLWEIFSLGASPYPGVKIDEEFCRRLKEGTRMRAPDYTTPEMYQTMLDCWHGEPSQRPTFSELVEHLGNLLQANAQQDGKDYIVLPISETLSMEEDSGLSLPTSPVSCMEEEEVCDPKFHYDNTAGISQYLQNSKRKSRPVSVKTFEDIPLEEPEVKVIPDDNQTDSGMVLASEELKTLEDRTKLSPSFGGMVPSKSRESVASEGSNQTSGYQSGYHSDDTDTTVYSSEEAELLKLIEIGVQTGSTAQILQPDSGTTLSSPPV
Sequence of Adrenergic α2A (P08913 whole entry): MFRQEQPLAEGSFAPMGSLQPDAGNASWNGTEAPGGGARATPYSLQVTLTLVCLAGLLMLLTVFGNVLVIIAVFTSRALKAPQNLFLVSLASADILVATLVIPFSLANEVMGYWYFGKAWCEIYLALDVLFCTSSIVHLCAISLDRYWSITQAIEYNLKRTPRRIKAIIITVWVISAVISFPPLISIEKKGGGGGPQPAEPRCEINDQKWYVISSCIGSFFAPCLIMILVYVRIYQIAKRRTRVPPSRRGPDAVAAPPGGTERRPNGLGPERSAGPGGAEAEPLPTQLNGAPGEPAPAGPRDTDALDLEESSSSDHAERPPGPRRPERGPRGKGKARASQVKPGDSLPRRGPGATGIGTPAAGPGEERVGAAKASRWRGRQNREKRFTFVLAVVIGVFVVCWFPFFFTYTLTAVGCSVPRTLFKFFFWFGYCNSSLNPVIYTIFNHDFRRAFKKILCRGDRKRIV

Consider `O=C(C1CC1)N1CCN(Cn2sc3c(F)cccc3c2=O)CC1` [LC-43], for which, in series [1], the “toxicity in PC12 cell culture assay” value was “decreased cellular toxicity”. Also, the “neuronal redox state (roGFP2)” value in series [2] (30 min treatment) is “no effect”; in [2] (24 h treatment, 10 μM) it was “measurable and significant reduction in neuronal redox state”. Also, in [3] (3 days treatment), the “protection of pyramidal neurons in AD brain slice” value is listed as “dose-dependent rescue; also recorded: robust neuroprotection”. Also, the “concentration that provided peak rescue” value in [3] (AD brain slice assay) was 10 µM. In addition, the “inhibition of enzymatic (reductase) activity of PDI” value in [4] is recorded as “able to inhibit the enzymatic activity of PDI”.
Take `O=C(C1CC1)N1CCN(Cn2sc3ccccc3c2=O)CC1` [LOC14]: the Average is listed as 5.0 in series [5]; 0.0 in series [8]; 17.2 in [9]; 16.1 in series [10]; 5.9 in series [11]; 0.0 in series [13]. The Average in [15] was 1.4. For the same compound, the inhibition at 3 µM in series [6] is 0%; in series [7], 34%; in [12], -8%; in series [14], 32%; in series [16], 7%.
